Measured values published in patent US9085589B2, “Cephem derivative” (SHIONOGI & CO., LTD., priority 2010, dated 2015).
Converted amounts (≈) assume the structure as drawn.

Tests used:
Assay type in all cases: cell-based
[1] = system: Streptococcus pneumoniae Type I; assay: MIC, agar plate incubation (Japan Society for Chemotherapy standard method); settings: S. pneumoniae Type I, PSSP, sensitive disc medium, 1000 cfu/spot, read-out: Minimum Inhibitory Concentration (MIC)
Description: (§1) (Test Methods for Compounds (I-1) to (I-9), (I-16), (I-17) and (I-23))
(§2) (Microbe/Strain Species Nos. 1 to 4 and 6 to 8):
(§3) Measurement of Minimum Inhibitory Concentration (MIC: microgram/ml) was conducted according to the standard method of the Japan Society for Chemotherapy, and the amount of bacteria for inoculation was 1000 cfu/spot, and sensitive disc medium was used as the test medium, and conducted using agar plate incubation.

[2] = system: Klebsiella pneumoniae ATCC 700603; assay: as above; settings: K. pneumoniae ATCC700603, SHV-18, ESBL producing strain, sensitive disc medium, 1000 cfu/spot, read-out: Minimum Inhibitory Concentration (MIC)
Description: as §1, §2, §3

[3] = system: Acinetobacter baumannii SR24396; assay: as above; settings: A. baumannii SR24396, sensitive disc medium, 1000 cfu/spot, read-out: Minimum Inhibitory Concentration (MIC)
Description: as §1, §2, §3

[4] = system: Pseudomonas aeruginosa SR24; assay: as above; settings: P. aeruginosa SR24, ceftazidime sensitive strain, sensitive disc medium, 1000 cfu/spot, read-out: Minimum Inhibitory Concentration (MIC)
Description: as §1, §2, §3

[5] = system: Pseudomonas aeruginosa SR27060; assay: as above; settings: P. aeruginosa SR27060, IMP-1, MBL producing (carbapenem resistant) strain, sensitive disc medium, 1000 cfu/spot, read-out: Minimum Inhibitory Concentration (MIC)
Description: as §1, §2, §3

[6] = system: Stenotrohomonas maltophilia SR21970; assay: MIC, agar plate incubation (CLSI), Mueller-Hinton agar; settings: Stenotrophomonas maltophilia, S. maltophilia SR21970, L-1, MBL producing (carbapenem resistant) strain, 10000 cfu/spot, read-out: Minimum Inhibitory Concentration (MIC)
Description: as §1
(Microbe/Strain Species No. 5):
Measurement of Minimum Inhibitory Concentration (MIC, microgram/ml) was conducted according to the CLSI (Clinical and Laboratory Standards Institute) and the amount of bacteria for inoculation was 10000 cfu/spot, and Mueller-Hinton agar medium was used as the test medium, and conducted using agar plate incubation.

[7] = system: Streptococcus pneumoniae SR16675; assay: MIC, agar plate incubation (Japan Society for Chemotherapy standard method); settings: S. pneumoniae SR16675, PRSP, sensitive disc medium, 1000 cfu/spot, read-out: Minimum Inhibitory Concentration (MIC)
Description: as §1, §2, §3

[8] = system: Staphylococcus aureus Smith; assay: as above; settings: S. aureus Smith, MSSA, sensitive disc medium, 1000 cfu/spot, read-out: Minimum Inhibitory Concentration (MIC)
Description: as §1, §2, §3

[9] = system: Klebsiella pneumoniae ATCC 700603; assay: MIC, broth microdilution (CLSI), medium with human Apo-transferrin; settings: K. pneumoniae ATCC700603, SHV-18, ESBL producing strain, cation adjusted Mueller-Hinton + human Apo-transferrin, 5×10^5 cfu/mL, read-out: Minimum Inhibitory Concentration (MIC)
Description: (§4) (Test Methods for Compounds (I-10) to (I-15))
(§5) (Microbe/Strain Species Nos. 1 to 5):
(§6) Measurement of Minimum Inhibitory Concentration (MIC, microgram/ml) was conducted according to the CLSI (Clinical and Laboratory Standards Institute) and the amount of bacteria for inoculation was 5×10^5 cfu/mL, and cation adjusted Mueller-Hinton liquid medium added human Apo-tranferrin was used as the test medium, and conducted using broth microdilution method.
(§7) (Test Methods for Compounds (I-18) to (I-22))

[10] = system: Acinetobacter baumannii SR24396; assay: as above; settings: A. baumannii SR24396, cation adjusted Mueller-Hinton + human Apo-transferrin, 5×10^5 cfu/mL, read-out: Minimum Inhibitory Concentration (MIC)
Description: as §4, §5, §6, §7

[11] = system: Stenotrohomonas maltophilia SR21970; assay: as above; settings: Stenotrophomonas maltophilia, S. maltophilia SR21970, L-1, MBL producing (carbapenem resistant) strain, cation adjusted Mueller-Hinton + human Apo-transferrin, 5×10^5 cfu/mL, read-out: Minimum Inhibitory Concentration (MIC)
Description: as §4, §5, §6, §7

[12] = system: Pseudomonas aeruginosa SR24; assay: as above; settings: P. aeruginosa SR24, ceftazidime sensitive strain, cation adjusted Mueller-Hinton + human Apo-transferrin, 5×10^5 cfu/mL, read-out: Minimum Inhibitory Concentration (MIC)
Description: as §4, §5, §6, §7

[13] = system: Pseudomonas aeruginosa SR27060; assay: as above; settings: P. aeruginosa SR27060, IMP-1, MBL producing (carbapenem resistant) strain, cation adjusted Mueller-Hinton + human Apo-transferrin, 5×10^5 cfu/mL, read-out: Minimum Inhibitory Concentration (MIC)
Description: as §4, §5, §6, §7

| MIC [1] | MIC [2] | MIC [3] | MIC [4] | MIC [5] | MIC [6] | MIC [7] | MIC [8] | Structure (SMILES) | MIC [9] | MIC [10] | MIC [11] | MIC [12] | MIC [13] |
| --- | --- | --- | --- | --- | --- | --- | --- | --- | --- | --- | --- | --- | --- |
| 4 µg/mL | 0.5 µg/mL | 0.25 µg/mL | 0.25 µg/mL | 2 µg/mL | 4 µg/mL | – | – | Nc1nc(C(=CCC(=O)[O-])C(=O)N[C@@H]2C(=O)N3C(C(=O)[O-])=C(C[N+]4(CCNC(=O)c5ccc(O)c(O)c5Cl)CCCC4)CS[C@H]23)cs1.[Na+] [Compound I-8] | – | – | – | – | – |
| 0.5 µg/mL (≈ 0.626 µM) | 1 µg/mL (≈ 1.25 µM) | 0.5 µg/mL (≈ 0.626 µM) | 0.063 µg/mL (≈ 0.0789 µM) | 0.5 µg/mL (≈ 0.626 µM) | 2 µg/mL (≈ 2.51 µM) | 8 µg/mL (≈ 10 µM) | 4 µg/mL (≈ 5.01 µM) | CCN1CCN(C(=O)N[C@@H](C(=O)N[C@@H]2C(=O)N3C(C(=O)[O-])=C(C[N+]4(CCNC(=O)c5ccc(O)c(O)c5Cl)CCCC4)CS[C@H]23)c2ccccc2)C(=O)C1=O [Compound I-1] | – | – | – | – | – |
| – | – | – | – | – | – | – | – | CC(C)(O/N=C(\C(=O)N[C@@H]1C(=O)N2C(C(=O)[O-])=C(C[N@+]34CCC[C@H]3CN(C(=O)c3ccc(O)c(O)c3Cl)CC4)CS[C@H]12)c1ccc(O)cc1)C(=O)[O-].[Na+] [Compound I-15] | 32 µg/mL | 4 µg/mL | 0.5 µg/mL | 0.5 µg/mL | 2 µg/mL |
| – | – | – | – | – | – | – | – | CCN1CCN(C(=O)N[C@@H](C(=O)N[C@@H]2C(=O)N3C(C(=O)[O-])=C(C[N@+]4(C)[C@@H]5CC[C@H]4C[C@@H](NC(=O)c4ccc(O)c(O)c4Cl)C5)CS[C@H]23)c2ccccc2)C(=O)C1=O [Compound I-18] | 2 µg/mL | 0.25 µg/mL | 4 µg/mL | 0.125 µg/mL | 2 µg/mL |
| – | 4 µg/mL (≈ 5.23 µM) | 1 µg/mL (≈ 1.31 µM) | 0.25 µg/mL (≈ 0.327 µM) | 1 µg/mL (≈ 1.31 µM) | 2 µg/mL (≈ 2.62 µM) | – | – | CC(C)(O/N=C(\C(=O)NC1C(=O)N2C(C(=O)O)=C(C[N+]3(CCNC(=O)c4ccc(O)c(O)c4Cl)CCCC3)CS[C@H]12)c1ccc(O)c(F)c1)C(=O)[O-] (some centres unmarked) [Compound I-17] | – | – | – | – | – |

| Structure (SMILES) | MIC [1] | MIC [2] | MIC [3] | MIC [4] | MIC [5] | MIC [6] | MIC [7] | MIC [8] | MIC [9] | MIC [10] | MIC [11] | MIC [12] | MIC [13] |
| --- | --- | --- | --- | --- | --- | --- | --- | --- | --- | --- | --- | --- | --- |
| CCN1CCN(C(=O)N[C@@H](C(=O)N[C@@H]2C(=O)N3C(C(=O)[O-])=C(C[N+]45CCC(CNC(=O)c6ccc(O)c(O)c6Cl)(CC4)CC5)CO[C@H]23)c2ccccc2)C(=O)C1=O [Compound I-23] | 0.5 µg/mL (≈ 0.619 µM) | 16 µg/mL (≈ 19.8 µM) | 1 µg/mL (≈ 1.24 µM) | 0.5 µg/mL (≈ 0.619 µM) | 4 µg/mL (≈ 4.95 µM) | > 64 µg/mL | – | – | – | – | – | – | – |
